Reference: patent publication US9796753B2, “N-substituted indenoisoquinolines and syntheses thereof” (Purdue Research Foundation, priority 2005, dated 2017)
Read-outs that look alike come from different tables or passages of the source.

What was measured:
Assay type in all cases: cell-based
[1] = tested on: CNS SF-539; test: COMPARE screening (NCI human cancer cell line screen), cytotoxicity GI50
Description: (§1) Selected compounds were tested for antiproliferative activity in the National Cancer Institute's developmental therapeutics assay 60 cell line screen (NCI60). The cells were incubated with the tested compounds at 100, 10, 1, 0.1, and 0.01 μM concentrations for 48 h before treatment with sulforhodamine B dye. Optical densities were recorded, and their ratios relative to that of the control were plotted as percentage growth against the log 10 of the tested compound concentrations.

[2] = tested on: colon HCT-116; test: as above
Description: as §1

[3] = tested on: lung HOP-62; test: as above
Description: as §1

[4] = tested on: melanoma UACC-62; test: as above
Description: as §1

[5] = tested on: ovarian OVCAR-3; test: as above
Description: as §1

[6] = tested on: prostate DU-145; test: as above
Description: as §1

[7] = tested on: renal SN12C; test: as above
Description: as §1

[8] = tested on: breast MDA-MB-435; test: as above
[9] = tested on: all human cancer cell lines successfully tested; test: NCI screen mean graph midpoint (MGM) for growth inhibition
Description: COMPARE screening. The compounds described herein were examined for antiproliferative activity against the human cancer cell lines in the National Cancer Institute screen (COMPARE screening), in which the activity of each compound was evaluated with approximately 55 different cancer cell lines of diverse tumor origins. […] Therefore, the MGM value represents an overall assessment of toxicity of the compound across numerous cell lines.
as §1
The cytotoxicities of the compounds to cultured cancer cells were measured in the National Cancer Institute's 60 cell line assay (a.k.a. NCI-60).

[10] = CNS SF-539, concentration corresponding to 50% growth inhibition, read-out: cytotoxicity (GI50 in μM) CNS SF-539
[11] = colon HCT-116, concentration corresponding to 50% growth inhibition, read-out: cytotoxicity (GI50 in μM) colon HCT-116
[12] = lung HOP-62, concentration corresponding to 50% growth inhibition, read-out: cytotoxicity (GI50 in μM) lung HOP-62
[13] = melanoma UACC-62, concentration corresponding to 50% growth inhibition, read-out: cytotoxicity (GI50 in μM) melanoma UACC-62
[14] = ovarian OVCAR-3, concentration corresponding to 50% growth inhibition, read-out: cytotoxicity (GI50 in μM) ovarian OVCAR-3
[15] = prostate DU-145, concentration corresponding to 50% growth inhibition, read-out: cytotoxicity (GI50 in μM) prostate DU-145
[16] = renal SN12C, concentration corresponding to 50% growth inhibition, read-out: cytotoxicity (GI50 in μM) renal SN12C
[17] = breast MDA-MB-435, concentration corresponding to 50% growth inhibition, read-out: cytotoxicity (GI50 in μM) breast MDA-MB-435
[18] = all human cancer cell lines successfully tested
[19] = Table 1, average GI50 of all cell lines tested (approximately 55), test range 10^−8 to 10^−4 molar

Structure (SMILES): CC(C)(C)OC(=O)N(CCCCN(CCCn1c2c(c3ccccc3c1=O)C(=O)c1ccccc1-2)C(=O)OC(C)(C)C)CCCn1c2c(c3ccccc3c1=O)C(=O)c1ccccc1-2 [Compound 13d, Bis-1,4-{(5,6-dihydro-5,11-diketo-11H-indeno[1,2-c]isoquinoline)-(6-propyl-tert-BOCamino)}butane]
- GI50 [1, 10]: 8.13 µM
- GI50 [2, 11]: 1.91 µM
- GI50 [3, 12]: 11 µM
- GI50 [4, 13]: 93.3 µM
- GI50 [5, 14]: 69.2 µM
- GI50 [6, 15]: 47.9 µM
- GI50 [7, 16]: 36.3 µM
- GI50 [8, 17]: 69.2 µM
- MGM (mean GI50 across cell lines) [9, 18]: 35.5 µM

Structure (SMILES): COc1cc2c3c(n(CCNCCCNCCn4c5c(c6cc(OC)c(OC)cc6c4=O)C(=O)c4ccccc4-5)c(=O)c2cc1OC)-c1ccccc1C3=O.O=C(O)C(F)(F)F.O=C(O)C(F)(F)F [Compound 14k, Bis-1,3-{(5,6-dihydro-5,11-diketo-2,3-dimethoxy-11H-indeno[1,2-c]isoquinoline)-6-ethylamino}propane Bis{trifluoroacetate)]
- GI50 [1, 10]: 0.17 µM
- GI50 [2, 11]: 0.045 µM
- GI50 [3, 12]: 0.068 µM
- GI50 [4, 13]: 1.23 µM
- GI50 [5, 14]: 0.269 µM
- GI50 [6, 15]: 0.209 µM
- GI50 [7, 16]: 0.028 µM
- GI50 [8, 17]: 0.813 µM
- MGM (mean GI50 across cell lines) [9, 18]: 0.562 µM

Structure (SMILES): O=C1c2ccccc2-c2c1c1ccccc1c(=O)n2CCN1CCOCC1 [Compound 5j]
- GI50 [1]: 85.1 µM
- GI50 [2]: 36.3 µM
- GI50 [3]: > 100 µM
- GI50 [4]: 29.5 µM
- GI50 [5]: 81.3 µM
- GI50 [6]: > 100 µM
- GI50 [7]: 93.3 µM
- GI50 [8]: > 100 µM
- MGM (mean GI50 across cell lines) [9, 19]: 67.6 µM

Structure (SMILES): COc1ccc2c(c1)C(=O)c1c-2n(CCCN2CCOCC2)c(=O)c2ccccc12 [Compound 5bk]
- GI50 [1]: 1.95 µM
- GI50 [2]: 1.26 µM
- GI50 [3]: 1.41 µM
- GI50 [4]: 1.58 µM
- GI50 [5]: 2.69 µM
- GI50 [6]: 2.29 µM
- GI50 [7]: 4.07 µM
- GI50 [8]: 4.68 µM
- MGM (mean graph midpoint for growth inhibition) [9, 19]: 2.70 ± 0.125 µM

Structure (SMILES): Cl.NCCCn1c2c(c3ccccc3c1=O)C(=O)c1ccccc1-2 [Compound 5am]
- GI50 [1]: 0.25 µM
- GI50 [2]: 0.18 µM
- GI50 [3]: 0.2 µM
- GI50 [4]: 0.26 µM
- GI50 [5]: 1.38 µM
- GI50 [6]: 0.22 µM
- GI50 [7]: 0.16 µM
- GI50 [8]: 0.78 µM
- MGM (mean graph midpoint for growth inhibition) [9, 19]: 0.32 ± 0.23 µM

Structure (SMILES): O=C(O)C(F)(F)F.O=C1c2ccccc2-c2c1c1ccccc1c(=O)n2CCCNCCn1c2c(c3ccccc3c1=O)C(=O)c1ccccc1-2 [Compound 14a, Bis{(5,6-dihydro-5,11-diketo-11H-indeno[1,2-c]isoquinoline)}-(6-ethyl,6′-propyl)ammonium Trifluoroacetate]
- GI50 [1]: 14.5 µM
- GI50 [2]: 1.05 µM
- GI50 [3]: 0.977 µM
- GI50 [4]: 5.01 µM
- GI50 [5]: 8.91 µM
- GI50 [6]: 1.91 µM
- GI50 [7]: 11 µM
- GI50 [8]: 2.24 µM
- MGM (mean GI50 across cell lines) [9, 18]: 5.25 µM

Structure (SMILES): COc1ccc2c(c1)C(=O)c1c-2n(CCCCl)c(=O)c2cc([N+](=O)[O-])ccc12 [Compound 5ba]
- GI50 [1]: 0.027 µM
- GI50 [2]: 0.794 µM
- GI50 [3]: 0.295 µM
- GI50 [4]: < 0.01 µM
- GI50 [5]: 3.39 µM
- GI50 [6]: 0.036 µM
- GI50 [7]: < 0.01 µM
- GI50 [8]: 3.24 µM
- MGM (mean graph midpoint for growth inhibition) [9, 19]: 0.178 ± 0.012 µM

Structure (SMILES): NCCCn1c2c(c3ccccc3c1=O)C(=O)c1ccccc1-2 [Compound S-3, 5,6-dihyro-6-(3-amino-1-propyl)-5,11-dioxo-11H-indeno[1,2,c]isoquinoline, reference compound]
- GI50 [1]: 0.25 µM
- GI50 [2]: 0.18 µM
- GI50 [3]: 0.2 µM
- GI50 [4]: 0.26 µM
- GI50 [5]: 1.38 µM
- GI50 [6]: 0.22 µM
- GI50 [7]: 0.16 µM
- GI50 [8]: 0.78 µM
- MGM (mean graph midpoint for growth inhibition) [9, 18]: 0.32 ± 0.23 µM

Structure (SMILES): COc1ccc2c(c1)C(=O)c1c-2n(CCCNCCO)c(=O)c2ccccc12.Cl [Compound 5bn]
- GI50 [1]: 0.112 µM
- GI50 [2]: 0.044 µM
- GI50 [3]: 0.026 µM
- GI50 [4]: 0.55 µM
- GI50 [5]: 0.417 µM
- GI50 [6]: 0.055 µM
- GI50 [7]: 0.158 µM
- GI50 [8]: 0.389 µM
- MGM (mean graph midpoint for growth inhibition) [9, 19]: 0.124 ± 0.014 µM
